Assay results reported in US8765946B2, “Methods of preparing and using quinazoline and quinoline derivatives” (priority 2006, dated 2014).

How the values were obtained:
A431 cells = experiment: A431 cell growth inhibition assay (MTT assay); format: cell-based; settings: Homo sapiens, A-431, concentration of 3 μM, 72 hours, read-out: Inhibition Percent (%)
Procedure: A431 Cell Growth Inhibition Assay (MTT Assay)
A431, an epidermoid carcinoma cell line; The Cell Bank, Committee on Type Culture Collection Chinese Academy of Science, Shanghai.
Mix prepared medium DMEM and F12 in the proportion of 1:1, then add FBS to a final concentration of 10%.
Dissolved the dried compound sample with 100% DMSO to 2 mM. Then diluted the dissolved compound to 20 μM with cell complete growth medium.
Prior to the assay, cultured the A431 to logarithmic phase, and then removed medium from cell monolayers and wash the cells once with sterilized PBS. Aspriated the PBS and added 2 mL trypsin solution to cover the cell growth surface, removed 1 mL trypsin solution after soaking about 1 minute. Transferred the cell-culture plate to CO2 incubator; incubated at 37° C. for 8 minutes to allow cells to dissociate. After the cells detached, added 4 mL complete growth medium containing FBS with pipette to disperse them off and mixed gently to obtain a homogeneous cell suspension. Aspirated some of the cell suspension to a sterilized polypropylene tube, and determined the cell concentration by counting in a hematocytometer chamber under a microscope. Adjusted the cell concentration with growth medium to obtain 2.5×10^4 cells per milliliter.
Added 100 μL adjusted cell suspension to the 96-well cell-culture plate and occasionally mixed the cell suspension during the seeding process. After seeding cells, incubated the plate at 37° C. overnight with 5% CO2 in the CO2 incubator for cell attachment.
After the cell attachment, added 100 μL prepared compound solutions to the corresponding wells (add PBS to the ambient wells of the plate). The final compound concentrations ranged from 10 μM to 1.52 nM. Incubated the plate at 37° C. with 5% CO2 for 72 hours in the CO2 incubator.
After the exposure to the compound, removed the cell culture supernatant. Then added 100 μL 0.5 mg/mL MTT solution which dissolved in the growth medium without FBS. Incubated the plate at 37° C. with 5% CO2 for another 4 hours to allow the MTT reaction to proceed.
After the MTT reaction, discarded the MTT reaction solution. Added 100 μL DMSO to each well, and the plate was agitated on the plate shaker for several minutes to dissolve the formazan. Then, detected the absorbance at 490 nm using microplate reader.

BT474 cells = experiment: BT-474 cell growth inhibition assay (SRB assay); format: cell-based; settings: Homo sapiens, concentration of 3 μM, 72 h, read-out: Inhibition Percent (%)
Procedure: BT-474 Cell Growth Inhibition Assay (SRB Assay)
BT-474 human breast cancer cell lines were kindly provided by Dr. Changnian Liu, Pharmaron Beijing Co., Ltd.
BT-474 cells were cultured in 37° C., 5% CO2, saturated humidity until logarithmic phase. Discarded culture medium, washed cells once by PBS. Added 1 ml Trypsin/EDTA solution, stood at 37° C. for 5 min, allowed the cells to detach. Added culture medium, adjusted the cells density to 1×10^5 cells/ml.
Day 0, added 100 μl/well cells suspension to 96-well cell culture plates. Incubated overnight to let the cells attach completely.
Day 1, compounds (2 mM in DMSO as stock solution) was diluted to 20 μM in EMEM. Then a fourfold serial dilution was made. These diluted compounds were made as 10× reaction solutions, and the concentration of DMSO was kept at 1%.
Added 80 μl culture medium and 20 μl 10× compound reaction solution to the testing wells, or vehicle control to the control wells. Co-incubated cells with compounds for another 72 h.
Day 3, fixed cellular protein by the addition of 100 μl/well of 10% TCA (diluting from 50% TCA) at 4° C. for 1 h. Rinsed TCA using plate washer, and washed five times using distilled water. Removed the residual wash solution with a piece of absorbent paper. Added 100 μl/well 0.4% SRB solution, allowed a 15-30 min staining period. Removed the SRB, and washed the culture plates five times using 1% acetic acid. Removed the residual wash solution with a piece of absorbent paper. Air-dried the culture plates, dissolved the protein-bound dye with 100 μl/well of 10 mM Tris base solution. Shook the plates until the dye was dissolved completely.

SMILES | inhibition at 3 µM (A431 cells) [%] | inhibition at 3 µM (BT474 cells) [%]
C#Cc1cccc(Nc2c(C#N)cnc3cc(OCC)c(NC(=O)C=C4CCN(CCOC)CC4)cc23)c1 [Example 159, N-(3-cyano-7-ethoxy-4-(3-ethynylphenylamino)quinolin-6-yl)-2-(1-(2-methoxyethyl)piperidin-4-ylidene)acetamide] | 83 | 53
COc1cc2ncc(C#N)c(Nc3cccc(Br)c3)c2cc1NC(=O)C=C1CCNCC1 [Example 155, N-(4-(3-bromophenylamino)-3-cyano-7-methoxyquinolin-6-yl)-2-(piperidin-4-ylidene)acetamide] | 90 | 58
COc1cc2ncc(C#N)c(Nc3ccc(Oc4cccc(F)c4)c(Cl)c3)c2cc1NC(=O)C=C1CCNCC1 [Example 146, N-(4-(3-chloro-4-(3-fluorophenoxy)phenylamino)-3-cyano-7-methoxyquinolin-6-yl)-2-(piperidin-4-ylidene)acetamide] | 52 | 85
COCCOc1cc2ncc(C#N)c(Nc3cccc(Br)c3)c2cc1NC(=O)C=C1CCNCC1 [Example 171, N-(4-(3-bromophenylamino)-3-cyano-7-(2-methoxyethoxy)quinolin-6-yl)-2-(piperidin-4-ylidene)acetamide] | 86 | 60
CCOc1cc2ncc(C#N)c(Nc3ccc(F)c(Cl)c3)c2cc1NC(=O)C=C1CCN(C)CC1 [Example 156, N-(4-(3-chloro-4-fluorophenylamino)-3-cyano-7-ethoxyquinolin-6-yl)-2-(1-methylpiperidin-4-ylidene)acetamide] | 89 | 60
COCCOc1cc2ncc(C#N)c(Nc3ccc(OCc4ccccn4)c(Cl)c3)c2cc1NC(=O)C=C1CCNCC1 [Example 165, N-(4-(3-chloro-4-(pyridin-2-ylmethoxy)phenylamino)-3-cyano-7-(2-methoxyethoxy)quinolin-6-yl)-2-(piperidin-4-ylidene)acetamide] | 53 | 87
CCOc1cc2ncc(C#N)c(Nc3ccc(OCc4cccc(F)c4)c(Cl)c3)c2cc1NC(=O)C=C1CCN(CCOC)CC1 [Example 163, N-(4-(4-(3-fluorobenzyloxy)-3-chlorophenylamino)-3-cyano-7-ethoxyquinolin-6-yl)-2-(1-(2-methoxyethyl)piperidin-4-ylidene)acetamide] | 40 | 87
CCOc1cc2ncc(C#N)c(Nc3ccc(F)c(Cl)c3)c2cc1NC(=O)C=C1CCN(CCOC)CC1 [Example 157, N-(4-(3-chloro-4-fluorophenylamino)-3-cyano-7-ethoxyquinolin-6-yl)-2-(1-(2-methoxyethyl)piperidin-4-ylidene)acetamide] | 85 | 59
N#Cc1cnc2ccc(NC(=O)C=C3CCNCC3)cc2c1Nc1ccc(OCc2cccc(F)c2)c(Cl)c1 [Example 168, N-(4-(4-(3-fluorobenzyloxy)-3-chlorophenylamino)-3-cyanoquinolin-6-yl)-2-(piperidin-4-ylidene)acetamide] | 41 | 89
CCOc1cc2ncc(C#N)c(Nc3ccc(OCc4ccccn4)c(Cl)c3)c2cc1NC(=O)C=C1CCN(CCOC)CC1 [Example 161, N-(4-(3-chloro-4-(pyridin-2-ylmethoxy)phenylamino)-3-cyano-7-ethoxyquinolin-6-yl)-2-(1-(2-methoxyethyl)piperidin-4-ylidene)acetamide] | 49 | 90
CCOc1cc2ncc(C#N)c(Nc3ccc(OCc4cccc(F)c4)c(Cl)c3)c2cc1NC(=O)C=C1CCN(C)CC1 [Example 162, N-(4-(4-(3-fluorobenzyloxy)-3-chlorophenylamino)-3-cyano-7-ethoxyquinolin-6-yl)-2-(1-methylpiperidin-4-ylidene)acetamide] | 41 | 91
